Test results taken from patent US20240335575A1, “METHOD AND APPARATUS FOR INACTIVATING PATHOGENS IN UNITS OF WHOLE BLOOD USING SUPERPARAMAGNETIC NANOPARTICLES COATED WITH CHEMILUMINESCENCE REAGENTS AND BROAD-SPECTRUM ANTI-VIRAL THERAPEUTICS” (Aphios Corporation, priority 2021, published 2024).

Assays:
BVDV [1] = assay: BVDV inactivation in spiked RBCC by doxorubicin alone; assay type: cell-based, Bovine Viral Diarrhea Virus; conditions: for Unwashed Titer / Washed Titer: 37° C. 2 hours in the dark; for Unwashed Titer: doxorubicin Low = 0.53 mM, High = 1.6 mM; for Combined VRF: treatment plus washing, compared to mean unwashed RBC controls; for Unwashed VRF: compared to mean titer of untreated RBC controls; for Washed VRF: compared to mean titer of washed untreated RBC controls
Experimental: Two levels of doxorubicin (low and high), RBCC, virus and DMEM (—Ca^++, —Mg^++) were prepared to all contain equivalent titers of BVDV calculated to be 6.23 log10 TCID50/mL (logs) based on the titer of the original virus stock.
The components were mixed and incubated at 37° C. for 2 hours in the dark followed by titration of unwashed and washed samples as previously described. Washing rows of wells with dilutions 1 and 2 was performed the next day. Final CPE were read 2 weeks post-infection. Cells were also monitored for cytotoxicity from the treatment components other than the virus 1 day and 2 weeks post-infection as in previous experiments.
The various combinations tested, the titers obtained and the calculated VRFs compared to the mean titer of the untreated RBC controls are listed in Table 4. There was no hemolysis or clumping for any of the samples at the end of the treatment period.

[2] = test system: Human Adenovirus-2 (HAd-2); assay: Earlier inactivation of HAd-2 in unwashed RBCC samples; assay type: cell-based; conditions: doxorubicin alone, observed previously
RBC = assay: Cytotoxicity, interference, RBC morphology and integrity after hypericin treatment; assay type: cell-based
Experimental: Cytotoxicity and interference studies are performed per CPMP/FDA guidelines to calculate the reduction in viral titers due to these factors and exclude them from the calculated reduction factors resulting from the antiviral treatment. The antiviral compounds are removed from the system by washing the erythrocytes. Appropriate controls are kept to determine the contribution of washing to the viral reduction factors.

BVDV [3] = assay: BVDV inactivation in spiked human RBCC by hypericin with luciferase system; assay type: cell-based, Bovine Viral Diarrhea Virus; conditions: for Unwashed Titer / Washed Titer: RT 2 hours in the dark; for Unwashed Titer / Unwashed VRF: unwashed samples; for Unwashed Titer: doses per sample label; for Washed Titer / Washed VRF: washed samples; for Combined VRF: treatment plus washing, compared to unwashed untreated RBC control; for Unwashed VRF: compared to titer of untreated RBC control; for Washed VRF: compared to washed untreated RBC control
Experimental: Ten different combinations of DMEM (—Ca^++, —Mg^++), RBCC, virus, hypericin, Luciferin, ATP and luciferase were prepared to all contain equivalent titers of BVDV calculated to be 6.48 log10TCID50/mL based on the titer of the original virus stock. The concentrations of hypericin tested were 0, 40 and 200 μg/mL. Luciferase was tested at 0, 0.8 and 4.0 μM. Luciferin and ATP were present at 80 and 800 μM respectively when luciferase was present and absent in the absence of luciferase.
The components were mixed and incubated at RT for 2 hours in the dark followed by titration of unwashed and washed samples as previously described. Washing rows of wells with dilutions 1 and 2 was performed 3 days post-infection. Final CPEs were read 10 days post-infection.
The various combinations tested, the titers obtained and the calculated VRFs compared to the titer of the untreated RBC control are listed in Table 2.

| SMILES | Unwashed Titer (BVDV [1]) [log10 TCID50/mL] | Washed Titer (BVDV [1]) [log10 TCID50/mL] | Combined VRF (BVDV [1]) [logs] | Unwashed VRF (BVDV [1]) [logs] | Washed VRF (BVDV [1]) [logs] | Unwashed Titer (BVDV [3]) [log10TCID50/mL] | Washed Titer (BVDV [3]) [log10TCID50/mL] | Combined VRF (BVDV [3]) [logs] | Unwashed VRF (BVDV [3]) [logs] | Washed VRF (BVDV [3]) [logs] | also measured |
| --- | --- | --- | --- | --- | --- | --- | --- | --- | --- | --- | --- |
| COc1cccc2c1C(=O)c1c(O)c3c(c(O)c1C2=O)C[C@@](O)(C(=O)CO)C[C@@H]3O[C@H]1C[C@H](N)[C@H](O)[C@H](C)O1 [Doxorubicin, (1S,3S)-3-glycoloyl-3,5,12-trihydroxy-10-methoxy-6,11-dioxo-1,2,3,4,6,11-hexahydrotetracen-1-yl 3-amino-2,3,6-trideoxy-α-L-lyxo-hexo-pyranoside] | – | – | – | – | – | – | – | – | – | – | viral inactivation activity against BVDV (BVDV [1]; doxorubicin treatment alone): has viral inactivation activity; viral inactivation activity against HAd-2 virus [2]: has viral inactivation activity |
| COc1cccc2c1C(=O)c1c(O)c3c(c(O)c1C2=O)C[C@@](O)(C(=O)CO)C[C@@H]3O[C@H]1C[C@H](N)[C@H](O)[C@H](C)O1 [Dox-H, Doxorubicin] | 3.10 | 3.10 | 2.50 | 2.50 | −0.19 | – | – | – | – | – | – |
| COc1cccc2c1C(=O)c1c(O)c3c(c(O)c1C2=O)C[C@@](O)(C(=O)CO)C[C@@H]3O[C@H]1C[C@H](N)[C@H](O)[C@H](C)O1 [Dox-L, Doxorubicin] | 3.23 | 3.10 | 2.50 | 2.38 | −0.19 | – | – | – | – | – | – |
| Cc1cc(O)c2c(=O)c3c(O)cc(O)c4c5c(O)cc(O)c6c(=O)c7c(O)cc(C)c8c1c2c(c34)c(c78)c65 [Hypericin] | – | – | – | – | – | – | – | – | – | – | impact on cytotoxicity, interference, RBC morphology and integrity (RBC; hypericin 40 μg/mL with CDP-Star 0.1 mM): very little impact; impact on cytotoxicity, interference, RBC morphology and integrity (RBC; hypericin 40 μg/mL with luciferase 0.16 μM): very little impact |
| Cc1cc(O)c2c(=O)c3c(O)cc(O)c4c5c(O)cc(O)c6c(=O)c7c(O)cc(C)c8c1c2c(c34)c(c78)c65 [HL-LN, Hypericin] | – | – | – | – | – | 3.48 | <2.34 | >4.01 | 2.87 | >1.64 | – |
| Cc1cc(O)c2c(=O)c3c(O)cc(O)c4c5c(O)cc(O)c6c(=O)c7c(O)cc(C)c8c1c2c(c34)c(c78)c65 [HH-LN, Hypericin] | – | – | – | – | – | 3.10 | 2.48 | 3.87 | 3.25 | 1.50 | – |
